Test results taken from ChEMBL document CHEMBL1150612, “Naturally occurring cembranes from an Australian sarcophyton species” (J Nat Prod, 2002).
Calls of active or inactive are those of the source. The calls are words filed in the database; no cut-off is given here.

Experiments:
[1] = target: T1, Adenosine receptor A1 (Rattus norvegicus) (UniProt P25099); experiment: Displacement of [3H]DPCPX from rat brain adenosine A1 receptor up to […]
T1 sequence (whole entry): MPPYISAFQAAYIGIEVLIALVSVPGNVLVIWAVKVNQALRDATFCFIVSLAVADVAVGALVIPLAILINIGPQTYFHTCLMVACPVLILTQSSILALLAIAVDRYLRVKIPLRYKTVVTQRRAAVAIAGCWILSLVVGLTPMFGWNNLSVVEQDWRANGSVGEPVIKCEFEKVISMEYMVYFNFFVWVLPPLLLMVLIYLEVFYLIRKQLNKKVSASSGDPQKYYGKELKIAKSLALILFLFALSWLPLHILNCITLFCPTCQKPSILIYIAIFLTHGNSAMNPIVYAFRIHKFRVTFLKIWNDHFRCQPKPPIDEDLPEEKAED

Adenosine receptor A1 = target: T2, Adenosine receptor A1 (Rattus norvegicus, UniProt P25099); experiment: Displacement of [3H]DPCPX from rat brain adenosine A1 receptor
T2 sequence (P25099 whole entry): T1 sequence (whole entry)

| Activity [1] | IC50 (Adenosine receptor A1) | SMILES |
| --- | --- | --- |
| inactive | – | C=C1CC[C@@H]2O[C@@]2(C)CC[C@@H](C(C)C)/C=C/[C@](C)(O)CC[C@H]1O |
| – | 300 µM | CC(C)[C@H]1/C=C/[C@](C)(O)C/C=C/[C@@](C)(O)CC[C@@H]2O[C@@]2(C)CC1 |
| inactive | – | C=C1CC[C@@H]2O[C@@]2(C)CC[C@@H](C(C)C)/C=C/[C@](C)(O)CC[C@@H]1O |
| – | 300 µM | CC(C)[C@H]1/C=C/[C@](C)(O)C/C=C/[C@](C)(O)CC[C@@H]2O[C@@]2(C)CC1 |
